The target in the assay is T1, TMEM16A (Homo sapiens, UniProt Q5XXA6).
T1 construct: gene ANO1
T1 sequence (Q5XXA6 1-986): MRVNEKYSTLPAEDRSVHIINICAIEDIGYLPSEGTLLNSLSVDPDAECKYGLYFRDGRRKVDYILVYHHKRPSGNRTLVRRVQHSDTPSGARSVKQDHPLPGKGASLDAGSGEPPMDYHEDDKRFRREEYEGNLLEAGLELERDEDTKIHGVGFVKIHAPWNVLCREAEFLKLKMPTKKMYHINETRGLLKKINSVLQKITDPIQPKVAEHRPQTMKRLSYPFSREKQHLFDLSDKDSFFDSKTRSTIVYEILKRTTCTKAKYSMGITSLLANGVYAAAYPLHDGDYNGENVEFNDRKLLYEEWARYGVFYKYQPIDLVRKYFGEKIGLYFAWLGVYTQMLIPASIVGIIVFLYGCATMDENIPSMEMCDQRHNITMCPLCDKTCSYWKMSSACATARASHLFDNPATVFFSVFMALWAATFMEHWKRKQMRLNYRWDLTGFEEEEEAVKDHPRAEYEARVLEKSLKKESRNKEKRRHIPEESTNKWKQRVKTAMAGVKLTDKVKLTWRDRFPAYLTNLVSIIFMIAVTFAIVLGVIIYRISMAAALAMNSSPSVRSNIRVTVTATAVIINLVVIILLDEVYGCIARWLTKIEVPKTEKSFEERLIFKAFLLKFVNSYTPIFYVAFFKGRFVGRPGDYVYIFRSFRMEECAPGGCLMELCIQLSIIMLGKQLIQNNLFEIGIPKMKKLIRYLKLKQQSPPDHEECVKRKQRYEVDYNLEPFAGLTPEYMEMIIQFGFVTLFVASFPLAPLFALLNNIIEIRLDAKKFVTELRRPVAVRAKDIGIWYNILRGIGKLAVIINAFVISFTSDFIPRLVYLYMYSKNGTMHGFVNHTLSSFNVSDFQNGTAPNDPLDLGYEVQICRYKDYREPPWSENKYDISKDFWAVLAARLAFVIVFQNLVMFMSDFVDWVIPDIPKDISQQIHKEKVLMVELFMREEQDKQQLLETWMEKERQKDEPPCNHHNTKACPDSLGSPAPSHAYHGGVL
As to the kind of experiment: short-circuit current (Eact-induced Cl- current) in basolaterally permeabilized FRT cells expressing TMEM16A; also YFP fluorescence quenching. It is filed as cell-based.

SMILES strings stand for the structures. pIC50: −log10 of the molar value.

The pIC50 is the IC50 on a negative log10 scale, so that one unit is a factor of ten. The low end stands for a large IC50, the high end for a small IC50.

Compound `CC(C)=CC[C@@H](O)C1=CC(=O)c2c(O)ccc(O)c2C1=O` [shikonin] showed a pIC50 of 5.82.

The values are drawn from paper PMC4993765, “Shikonin Inhibits Intestinal Calcium-Activated Chloride Channels and Prevents Rotaviral Diarrhea” (Frontiers in Pharmacology, 2016).
